{"source": "patent US20030157107A1", "about": "“Agents for preventing or ameliorating insulin resistance and/or obesity” (priority 2000, published 2003)", "key": {"[1]": {"system": "glucose absorption by the intestine", "conditions": "reported in WO98/24464; cited from earlier work"}, "C57BL/6j mice": {"system": "C57BL/6j mice", "test": "GIP administration and high fat diet loading test in normal mice", "format": "in vivo", "conditions": "high fat diet", "description": "The animals used were 17-week-old male C57BL/6j mice. An osmotic pump was implanted under the skin of the back of each animal. Groups of animals each consisting of 5 mice were continuously given GIP 20, 60 or 200 μg/kg/hour or physiological saline as control, and also given either high fat diet or control normal diet. The energy composition of high fat diet was: lipid 45%, carbohydrate 38%, and protein 17%. The energy composition of control normal diet was: lipid 13%, carbohydrate 60%, and protein 27%. The energy contents of high fat and control normal diets were 4.77 and 3.57 kcal/g, respectively. GIP administration and high fat diet loading were continued for 4 weeks.\nThe body weights were measured weekly, and their changes were compared between the groups. The blood samples were collected under fasting 4 weeks after the start of the experiment to determine the blood glucose and insulin levels."}, "GIP-receptor": {"target": "T1, GIP-receptor (Homo sapiens, UniProt P48546)", "T1 construct": "expressed in transfected cells; host or cells: CHO cells", "T1 sequence (P48546 22-466)": "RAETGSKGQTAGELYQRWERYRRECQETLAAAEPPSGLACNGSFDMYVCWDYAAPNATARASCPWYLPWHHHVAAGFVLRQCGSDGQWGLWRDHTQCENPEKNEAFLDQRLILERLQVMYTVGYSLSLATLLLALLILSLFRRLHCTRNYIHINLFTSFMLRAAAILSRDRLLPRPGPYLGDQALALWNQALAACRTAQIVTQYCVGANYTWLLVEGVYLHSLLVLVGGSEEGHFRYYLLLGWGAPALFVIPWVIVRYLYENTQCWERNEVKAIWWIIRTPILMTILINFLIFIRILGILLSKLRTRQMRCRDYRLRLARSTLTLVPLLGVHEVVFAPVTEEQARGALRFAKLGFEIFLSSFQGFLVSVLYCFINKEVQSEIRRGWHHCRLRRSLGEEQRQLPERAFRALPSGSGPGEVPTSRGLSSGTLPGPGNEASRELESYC", "test": "Inhibition of GIP-stimulated cAMP production in GIP-receptor expressing CHO cells", "format": "cell-based", "conditions": "CHO cells expressing GIP-receptor stimulated by 100 pM GIP; read-out: EC50 of inhibition of the cAMP production inducing effect of GIP", "description": "1. A method for screening drugs by monitoring an inhibitory activity on the production of cAMP, an intracellular transmitter of GIP, which according to the method described by Kubota et al. (Diabetes, 45: 1701-1705, 1996), uses the human GIP-receptor expressing cells where […] is introduced into the CHO cells, and make cAMP produced by GIP in Krebs-Ringer buffer solution containing 1 mM isobutylmethylxanthine at 37° C. for 30 minutes in the presence of the drug. Then cAMP is extracted with 30% trichloroacetic acid, and radioimmunoassay is used to quantitate cAMP. Alternatively, Scintillation Proximity Assay (SPA) provided by Amersham Pharmacia Biotech Co., Inc. is used to quantitate cAMP.\nScreening of low molecular GIP function inhibitors was performed in accordance with the Example 1 of the screening method. Specifically, the GIP-receptor expressing CHO cells were stimulated with 100 pM GIP in the presence and absence of the test compound, and the amount of produced cAMP was measured to determine the GIP function inhibitory activity of the test compound. […] Moreover, in order to determine other effects which are unrelated to these receptors, the CHO cells without introducing any of these receptor genes were stimulated with 5 μM forskolin, and the inhibitory effect of the test compound on production of cAMP was determined. […]"}, "GLP-1-receptor": {"target": "T2, GLP-1-receptor (Homo sapiens, UniProt P43220)", "T2 construct": "expressed in transfected cells; host or cells: CHO cells", "T2 sequence (P43220 24-463, species assumed)": "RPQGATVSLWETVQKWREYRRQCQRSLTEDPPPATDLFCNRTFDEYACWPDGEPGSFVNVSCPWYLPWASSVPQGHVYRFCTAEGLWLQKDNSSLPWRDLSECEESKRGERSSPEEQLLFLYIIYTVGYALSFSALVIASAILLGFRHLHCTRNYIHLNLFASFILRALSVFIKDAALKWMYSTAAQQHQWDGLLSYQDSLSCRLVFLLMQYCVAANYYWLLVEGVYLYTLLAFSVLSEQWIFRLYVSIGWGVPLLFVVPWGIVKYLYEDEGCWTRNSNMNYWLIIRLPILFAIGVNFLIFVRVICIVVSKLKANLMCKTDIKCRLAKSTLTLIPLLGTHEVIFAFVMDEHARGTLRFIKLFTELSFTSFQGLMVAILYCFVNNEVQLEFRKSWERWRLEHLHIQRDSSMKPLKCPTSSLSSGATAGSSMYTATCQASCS", "test": "Inhibition of GLP-1-stimulated cAMP production in CHO cells expressing GLP-1-receptor", "format": "cell-based", "conditions": "CHO cells expressing GLP-1-receptor stimulated by 100 pM GLP-1", "description": "(§1) Screening of low molecular GIP function inhibitors was performed in accordance with the Example 1 of the screening method. Specifically, the GIP-receptor expressing CHO cells were stimulated with 100 pM GIP in the presence and absence of the test compound, and the amount of produced cAMP was measured to determine the GIP function inhibitory activity of the test compound. In addition, in order to confirm the receptor specificity of the test compound, the CHO cells expressing receptors of GLP-1 and glucagon which belong to glucagon-secretin family like GIP were stimulated with GLP-1 and glucagon (100 pM), respectively, and the inhibitory activity of the test compound on production of CAMP was determined. Moreover, in order to determine other effects which are unrelated to these receptors, the CHO cells without introducing any of these receptor genes were stimulated with 5 μM forskolin, and the inhibitory effect of the test compound on production of cAMP was determined. As for positive control, 500 nM GIP (7-30)-NH2 (tGIP) was used. [drawing 1]"}, "glucagon-receptor": {"target": "T3, glucagon-receptor (Homo sapiens, UniProt P47871)", "T3 construct": "expressed in transfected cells; host or cells: CHO cells", "T3 sequence (P47871 26-477, species assumed)": "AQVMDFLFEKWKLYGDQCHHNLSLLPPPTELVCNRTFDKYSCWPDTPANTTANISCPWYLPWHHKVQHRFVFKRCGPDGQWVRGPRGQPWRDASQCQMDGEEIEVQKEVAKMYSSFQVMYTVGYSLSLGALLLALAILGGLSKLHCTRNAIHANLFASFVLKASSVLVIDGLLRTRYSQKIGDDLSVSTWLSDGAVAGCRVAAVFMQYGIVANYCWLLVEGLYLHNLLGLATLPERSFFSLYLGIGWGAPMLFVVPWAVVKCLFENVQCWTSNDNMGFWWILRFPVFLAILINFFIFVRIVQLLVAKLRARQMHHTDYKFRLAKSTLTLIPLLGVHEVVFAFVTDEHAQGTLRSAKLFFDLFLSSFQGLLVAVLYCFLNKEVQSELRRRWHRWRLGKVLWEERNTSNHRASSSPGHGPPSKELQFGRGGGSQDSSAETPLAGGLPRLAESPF", "test": "Inhibition of glucagon-stimulated cAMP production in CHO cells expressing glucagon-receptor", "format": "cell-based", "conditions": "CHO cells expressing glucagon-receptor stimulated by 100 pM glucagon, read-out: inhibitory rate on the action of glucagon (cAMP production)", "description": "as §1"}, "[2]": {"system": "CHO cells without transfer of receptor genes", "test": "Inhibition of forskolin-stimulated cAMP production in CHO cells without transfer of receptor genes", "format": "cell-based", "conditions": "5 μM forskolin", "description": "as §1"}, "[3]": {"conditions": "continuous GIP 20, 60 or 200 μg/kg/hour, after 4 weeks, vs same diet without GIP"}}, "note": "No end group written: not given here."}
{"compound": "GIP (7-30)-NH2: fragmented peptide of GIP, known GIP-receptor antagonist, used as positive control (ISDYSIAMDKIHQQDFVNWLLAQK-NH2; UniProt P09681 58-81, looked up, fragment)", "values": [{"measurement": "glucose absorption by the intestine", "setting": "[1]", "value": "suppressed glucose absorption by the intestine"}]}
{"compound": "GIP: gastric inhibitory polypeptide or glucose-dependent insulinotropic peptide, a gastrointestinal hormone (YAEGTFISDYSIAMDKIHQQDFVNWLLAQKGKKNDWKHNITQ; Gastric inhibitory polypeptide; UniProt P09681 52-93, looked up)", "values": [{"measurement": "body weight gain", "setting": "C57BL/6j mice; continuous GIP 20, 60 or 200 μg/kg/hour by osmotic pump, 4 weeks", "value": "No further increase in the body weight gain"}, {"measurement": "fasting blood glucose levels", "setting": "C57BL/6j mice; [3]", "value": "increased depending on the dose of GIP"}, {"measurement": "fasting blood insulin levels", "setting": "C57BL/6j mice; [3]", "value": "tended to increase depending on the dose of GIP"}]}
{"compound": "Cc1cc(O)n2nc(-c3ccccc3)c(Br)c2n1", "note": "[BMPP, 3-bromo-5-methyl-2-phenylpyrazolo[1,5-a]pyrimidine-7-ol]", "values": [{"measurement": "EC50", "setting": "GIP-receptor", "value": "~30", "unit": "µM"}, {"measurement": "inhibitory effect on GLP-1 action (cAMP production)", "setting": "GLP-1-receptor", "value": "almost no inhibitory effect"}, {"measurement": "inhibition at 80 µM", "setting": "glucagon-receptor", "value": 27, "unit": "%"}, {"measurement": "inhibitory effect on cAMP production stimulated by forskolin", "setting": "[2]", "value": "did not show any inhibitory effect"}]}
